Source: US20260001911A1, “CYCLIC PEPTIDE COMPOUND CONTAINING PIPERAZIC ACID, METHOD OF PRODUCING SAME, AND USES OF SAME” (MolGenBio Co., Ltd., priority 2020, published 2026)
pIC50: −log10 of the molar value. Like-named read-outs stand apart in the source and are kept apart here. Numbered stars: 1 amine (or outer) side, 2 acyl side, 3 side chain; on linkers, the order of the positions; unused ones are H or OH. Square brackets hold non-standard residues; d marks the D form. Peptide text beside a SMILES is read from it. NMeF = CN[CH](Cc1ccccc1)C(=O)O; X1 = O=C(C1CCCNN1[*:1])[*:2]; NMeV = CN[CH](C(=O)O)C(C)C; NMeS = CN[CH](CO)C(=O)O; NMeA = CN[CH](C)C(=O)O; βAla = NCCC(=O)O

Legend:
[1] = system: colorectal cancer cell HCT116; test: cells
Experimental: (§1) 6 types of cancer cell lines of Lung adenocarcinoma cell A549, colorectal cancer cell HCT116, breast cancer cell MDA-MB-231, liver adenocarcinoma cell SK-HEP-1, stomach adenocarcinoma cell SNU638, and chronic myeloid leukemia cell K562,and a normal cell line of pulmonary fibroblast MRC-5 were purchased from Korean Cell Line Bank (Seoul, Korea).
(§2) With Lenziamide compound prepared as in Example 1 added, the cell lines were cultured for about 72 hours. Thereafter, the resulting cell cultures were stained with sulforhodamine (SRB) that […] and washed to remove non-binding dye, and the stained cells were suspended in 10 mM of Tris (pH 10.0). The absorbance was measured at 515 nm and the cell proliferation was measured. Using TableCurve 2D v5.01 software (Systant Software Inc., Richmond, CA, USA), half maximal inhibitory concentration (IC50) value was calculated by nonlinear regression analysis method. All reagents were purchased from Sigma-Aldrich. As a positive control, etoposide was used.

[2] = system: HCT116-5-FU resistant cell line; test: SRB cell growth inhibition, 5-fluorouracil resistant HCT116-5-FU
Experimental: as §2
In order to prepare HCT116-5-FU resistant cell line, 5-fluorouracil was treated to HCT116 cells 3 times a week, and only surviving cells were subcultured with treatment of increasing concentrations of 5-fluorouracil for 3 months. HCT116-5-FU resistant cell line was established by finally collecting and culturing only the surviving cells.

[3] = system: Lung adenocarcinoma cell A549; test: cells
Experimental: as §1, §2

[4] = system: breast cancer cell MDA-MB-231; test: cells
Experimental: as §1, §2

[5] = system: chronic myeloid leukemia cell K562; test: cells
Experimental: as §1, §2

[6] = system: liver adenocarcinoma cell SK-HEP-1; test: cells
Experimental: as §1, §2

[7] = system: pulmonary fibroblast MRC-5; test: cells
Experimental: as §1, §2

[8] = system: stomach adenocarcinoma cell SNU638; test: cells
Experimental: as §1, §2

[9] = system: colorectal cancer cell line HCT116; test: Cell cycle analysis by flow cytometry; assay type: cell-based, human
Experimental: In order to identify the action mechanism of lenziamide A showing an excellent cell proliferation inhibiting efficacy, cells of colorectal cancer cell line HCT116 were treated with lenziamide A at a concentration of 0 μM, 1.25 μM, 2.5 μM, or […]. The cell cycle control effect of lenziamide A was confirmed by using flow cytometry method, and the results are shown in FIGS. 2A and 2B.

[10] = system: HCT116 cells; test: Annexin V/propidium iodide dual-stain analysis; assay type: cell-based, human
Experimental: In order to confirm that sub G1 cell accumulation due to G2/M arrest effect of lenziamide A leads to cell apoptosis, HCT116 cells were treated with different concentrations of lenziamide A. Thereafter, cell death induction efficacy of lenziamide A was evaluated by using Annexin V/propidium iodide dual-stain analysis method which can identify cell deaths. The results of Annexin V/propidium iodide dual-stain analysis were shown in FIG. 3A, and stages of cells according to the concentration of lenziamide A were shown in FIG. 3B. The ratios (%) of live cells, early apoptosis, late apoptosis, necrosis, and total cell death were calculated.

[11] = system: HCT116 colorectal cancer xenograft; test: HCT116 xenograft animal model; assay type: in vivo; conditions: 10, 30 mg/kg intravenous
Experimental: Cells of HCT116, a human-derived colorectal cancer cell line, were diluted to a concentration of 5×10^6 units/mL in RPMI (Roswell Park Memorial Institute) medium, and 0.2 mL of the diluted cells was injected subcutaneously to right flank of BALB/c mice (5-week old, male). When the size of the tumor reached about 100 mm^3, groups were randomly divided based on the size of the tumor.
Lenziamide A was administered by intravenous injection at a dose of 10 mg/body weight kg or 30 mg/body weight kg to the prepared xenograft animal models. A mixture mixed at a ratio of dimethyl sulfoxide: Cremophor: saline=0.5:0.5:9 was used as a negative control, and irinotecan was used as a positive control. Volume of the tumor (mm^3), body weight of the xenograft animal model (g), and final weight of the tumor (g) were measured from the first day of administration, and the results are shown in FIGS. 4A to 4C.

[12] = system: HCT116-5-FU resistant cell line xenograft; test: HCT116-5-FU resistant xenograft animal model; assay type: in vivo, BALB/c mice; conditions: 10 mg/kg intravenous
Experimental: HCT116-5-FU resistant cell line prepared as described in Example 2-5 was diluted to a concentration of […] in RPMI medium, and 0.2 mL of the diluted cell line was injected subcutaneously to right flanks of BALB/c mice (5-week old, male). When the size of the tumor reached about 100 mm^3, groups were randomly divided based on the size of the tumor.
Lenziamide A (10 mg/body weight kg), 5-FU (30 mg/body weight kg), or a combination thereof (10 mg/body weight kg of lenziamide A+30 mg/body weight kg of 5-FU) was administered by intravenous injection to resistant cancer cell line injected xenograft animal models. A mixture mixed at a ratio of dimethyl sulfoxide: Cremophor: saline=0.5:0.5:9 was used as a negative control. Volumes of tumor (mm^3) and body weights of the xenograft animal models (g) were measured from the first day of administration, and the results are shown in FIGS. 5A and 5B.

[13] = system: metastatic colorectal cancer cell line (L-2); test: Expression of metastasis related biomarkers; assay type: cell-based; conditions: L-2 cells, 0 μM to 4 μM
Experimental: of non-metastatic cancer, thereby making it very difficult to treat it. A colorectal cancer cell line (C-1) was injected into appendix of laboratory mice and left for 6 weeks to artificially induce growth and metastasis of tumor, and colorectal cancer cells metastasized to the liver (L-2) were isolated and cultured. After administering 0 μM to 4 μM of lenziamide A to colorectal cancer cell line (C-1) and metastatic colorectal cancer cell line (L-2) obtained above, expression of biomarkers related to metastasis of cancer was identified by reverse transcription polymerase chain reaction (RT-PCR), and the results are shown in FIG. 6A.

[14] = system: metastatic colorectal cancer cell line (L-2); test: Metastatic colorectal cancer cell (L-2) injected animal model; assay type: in vivo, laboratory mice; conditions: 5 mg/kg or 15 mg/kg
Experimental: As described in Example 2-7 (1), a metastatic colorectal cancer cell line (L-2) was re-injected into appendix of laboratory mice to form tumor, and lenziamide A was administered at a dose of 5 mg/body weight kg or 15 mg/body weight kg. A mixture mixed at a ratio of dimethyl sulfoxide: Cremophor: saline=0.5:0.5:9 was used as a negative control. 10 mg/body weight kg of irinotecan was administered as a positive control. Volumes of tumor (mm3) and body weights of the xenograft animal model (g) were measured from the first day of administration, and the results are shown in FIGS. 6B and 6C.

[15] = Homo sapiens, HCT-116, read-out: IC50 HCT116
[16] = Homo sapiens, read-out: IC50 HCT116-5-FU

pIC50 [1, 15] | pIC50 [2, 16] | pIC50 ([3]; 72 h) | pIC50 ([4]; 72 h) | pIC50 ([5]; 72 h) | pIC50 ([1]; 72 h) | pIC50 ([6]; 72 h) | pIC50 ([8]; 72 h) | SMILES | Fold change (HCT116-5-FU/HCT116) [2] | pIC50 ([7]; 72 h) | other results
 |  | 6.37 | 6.64 | 6.44 | 6.70 | 6.66 | 6.60 | CCC(C)C1NC(=O)C(Cc2c[nH]c3ccccc23)N(C)C(=O)C2CCCNN2C(=O)C(CO)N(C)C(=O)C(CC(C)C)NC(C)C(Cc2ccccc2)N(C)C(=O)C(C)NC(=O)C(C(C)C)N(C)C(=O)CCNC(=O)C(C)N(C)C1=O (stereo not shown) [Lenziamide B] |  | < 4.70 | 
 |  | 6.12 | 6.02 | 6.19 | 6.28 | 6.28 | 6.37 | CC(C)CC1NC(C)C(Cc2ccccc2)N(C)C(=O)C(C)NC(=O)C(C(C)C)N(C)C(=O)CCNC(=O)C(C)N(C)C(=O)C(C(C)C)NC(=O)C(Cc2ccccc2)N(C)C(=O)C2CCCNN2C(=O)C(CO)N(C)C1=O (stereo not shown) [Lenziamide C] |  | < 4.70 | 
 |  | 5.75 | 5.80 | 5.92 | 6.00 | 6.02 | 5.88 | CC(C)CC1NC(C)C(Cc2ccccc2)N(C)C(=O)C(C)NC(=O)C(C(C)C)N(C)C(=O)CCNC(=O)C(C)NC(=O)C(C(C)C)NC(=O)C(Cc2ccccc2)N(C)C(=O)C2CCCNN2C(=O)C(CO)N(C)C1=O (stereo not shown) [Lenziamide E] |  | < 4.70 | 

The remaining lines, values behind:

SMILES | pIC50 [1, 15] | pIC50 [2, 16] | pIC50 ([3]; 72 h) | pIC50 ([4]; 72 h) | pIC50 ([5]; 72 h) | pIC50 ([1]; 72 h) | pIC50 ([6]; 72 h) | pIC50 ([8]; 72 h) | Fold change (HCT116-5-FU/HCT116) [2] | pIC50 ([7]; 72 h) | other results
O=c1[nH]cc(F)c(=O)[nH]1 [5-fluorouracil] | 5.37 | 4.44 |  |  |  |  |  |  | 8.70 |  | 
COc1cc([C@@H]2c3cc4c(cc3[C@@H](O[C@@H]3O[C@@H]5CO[C@@H](C)O[C@H]5[C@H](O)[C@H]3O)[C@H]3COC(=O)[C@H]23)OCO4)cc(OC)c1O [Etoposide, reference compound] | 6.12 | 5.72 |  |  |  |  |  |  | 2.53 |  | pIC50 ([3]; Homo sapiens, A549, 72 h, read-out: IC50 A549): 6.23; pIC50 ([4]; Homo sapiens, MDA-MB-231, 72 h, read-out: IC50 MDA-MB-231): 5.47; pIC50 ([5]; Homo sapiens, K562, 72 h, read-out: IC50 K562): 6.12; pIC50 ([1]; Homo sapiens, HCT-116, 72 h, read-out: IC50 HCT116): 5.73; pIC50 ([6]; Homo sapiens, SK-HEP1, 72 h, read-out: IC50 SK-HEP-1): 6.35; pIC50 ([7]; Homo sapiens, MRC5, 72 h, read-out: IC50 MRC-5): 4.94; pIC50 ([8]; Homo sapiens, SNU-638, 72 h, read-out: IC50 SNU638): 6.32
CCc1c2c(nc3ccc(OC(=O)N4CCC(N5CCCCC5)CC4)cc13)-c1cc3c(c(=O)n1C2)COC(=O)[C@]3(O)CC [Irinotecan] | 5.82 | 5.25 |  |  |  |  |  |  | 3.72 |  | 
CCC(C)C1NC(=O)C(Cc2ccccc2)N(C)C(=O)C2CCCNN2C(=O)C(CO)N(C)C(=O)C(CC(C)C)NC(=O)C(Cc2ccccc2)N(C)C(=O)C(C)NC(=O)C(C(C)C)N(C)C(=O)CCNC(=O)C(C)N(C)C1=O (stereo not shown) [Lenziamide A] (cyclo([X1][NMeF]I[NMeA][βAla][NMeV]A[NMeF]L[NMeS]); configuration not given here) |  |  | 6.10 | 6.21 | 6.11 | 6.43 | 6.41 | 6.36 |  | < 4.70 | pIC50 [1]: 6.44; growth of HCT116-5-FU resistant cell line [2]: effectively inhibited growth of HCT116-5-FU resistant cell line; pIC50 ([2]; 72 h): 6.38; Fold change (HCT116-5-FU/HCT116) ([2]; IC50 of HCT116-5-FU with respect to IC50 of HCT116): 1.16; sub G1 cell accumulation (cell death) ([9]; after G2/M arrest, high concentration): followed by sub G1 cell accumulation; G2/M cell cycle arrest ([9]; until 24 hours after treatment, 0-5 μM): G2/M cell cycle arrest was increased; early apoptosis cell population ([10]; 5 μM): about 20.37%; late apoptosis cell population ([10]; 5 μM): 51.40%; apoptosis ([10]; different concentrations of lenziamide A): apoptosis increased dependent on the concentration; tumor growth (volume, final weight) [11]: concentration-dependent tumor growth inhibitory effect; body weight (toxicity) ([11]; during administration period): no significant weight decrease; body weight [12]: without significant weight loss; growth of resistant tumor [12]: effectively inhibited growth of resistant tumor; expression of E-cadherin [13]: increased; expression of N-Cadherin and vimentin [13]: decreased; growth of tumor in the appendix [14]: also inhibited; metastasis of the tumor to other organs [14]: effectively inhibited
